According to patent US20250230193A1, “CYCLIC COMPOUND HAVING SELECTIVE KRAS INHIBITORY EFFECT ON HRAS AND NRAS” (CHUGAI SEIYAKU KABUSHIKI KAISHA, priority 2022, published 2025):
*1 amine or outer side, *2 acyl side, *3 side chain or, on linkers, in order; H or OH if unused. Where a SMILES comes first, the peptide text is derived from it. Bridges are numbered along the chain shown (N, C = ends). [ ]: non-standard residue; d: D form. The star is where a group is joined. hPhe(3,5-F2-4-CF3) = N[C@@H](CCc1cc(F)c(C(F)(F)F)c(F)c1)C(=O)O; hPhe(3-Cl-4-CF3) = N[C@@H](CCc1ccc(C(F)(F)F)c(Cl)c1)C(=O)O; NPrPhe(4-CF3) = CCCN[C@@H](Cc1ccc(C(F)(F)F)cc1)C(=O)O; X40 = CCCN([C@@H](Cc1ccc(OC)cc1)C(=O)[*:2])[*:1]; Morpholine(3S-CO) = O=C(O)[C@@H]1COCCN1; NMeGly(cPent) = CN[C@H](C(=O)O)C1CCCC1; Nva(3-Et) = CCC(CC)[C@H](N)C(=O)O; Hyp = O=C(O)[C@@H]1C[C@@H](O)CN1; NMeD = CN[C@@H](CC(=O)O)C(=O)O; NMeL = CN[C@@H](CC(C)C)C(=O)O; Morpholide = C1CN(*)CCO1; Ac5c = NC1(C(=O)O)CCCC1; Aze = O=C(O)[C@@H]1CCN1; Ac4c = NC1(C(=O)O)CCC1; Sar = CNCC(=O)O

Experiments:
[1] = molecular target: GDP-bound NRAS wild-type protein (Homo sapiens, UniProt P01111); assay: Binding to NRAS by surface plasmon resonance (SPR), Single Cycle Kinetics
[2] = molecular target: GDP-bound HRAS wild-type protein (Homo sapiens, UniProt P01112); assay: Binding to HRAS by surface plasmon resonance (SPR), Single Cycle Kinetics
[3] = KD ratio, GDP-bound NRAS wild-type vs GDP-bound KRAS wild-type, SPR
[4] = KD ratio, GDP-bound HRAS wild-type vs GDP-bound KRAS wild-type, SPR
[5] = SPR, GDP-bound wild-type proteins
[6] = SPR, GDP-bound NRAS wild-type vs GDP-bound KRAS wild-type
[7] = SPR, GDP-bound HRAS wild-type vs GDP-bound KRAS wild-type

Sequence of GDP-bound HRAS wild-type protein (P01112 whole entry): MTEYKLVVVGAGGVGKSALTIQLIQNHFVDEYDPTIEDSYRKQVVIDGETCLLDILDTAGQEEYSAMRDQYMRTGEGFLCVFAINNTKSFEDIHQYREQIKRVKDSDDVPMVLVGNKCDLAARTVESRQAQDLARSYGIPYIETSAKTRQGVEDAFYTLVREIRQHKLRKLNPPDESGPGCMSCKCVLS
Sequence of GDP-bound NRAS wild-type protein (P01111 whole entry): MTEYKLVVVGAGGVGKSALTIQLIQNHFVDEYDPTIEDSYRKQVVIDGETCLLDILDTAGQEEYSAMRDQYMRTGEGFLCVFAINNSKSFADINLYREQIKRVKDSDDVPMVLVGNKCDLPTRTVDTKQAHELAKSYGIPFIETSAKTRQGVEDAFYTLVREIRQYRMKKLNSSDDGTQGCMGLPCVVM

CCCN1C(=O)[C@@H]2CCN2C(=O)CN(C)C(=O)[C@H](C(CC)CC)NC(=O)[C@H](CC(C)C)N(C)C(=O)C[C@@H](C(=O)N2CCOCC2)N(C)C(=O)[C@H](C2CCCC2)N(C)C(=O)C2(CCCC2)NC(=O)[C@@H]2CCCN2C(=O)[C@H](CCc2cc(F)c(C(F)(F)F)c(F)c2)NC(=O)CN(C)C(=O)[C@@H]1Cc1ccc(C(F)(F)F)cc1 [PP0804] ([NMeL][Nva(3-Et)][Sar][Aze][NPrPhe(4-CF3)][Sar][hPhe(3,5-F2-4-CF3)]P[Ac5c][NMeGly(cPent)][NMeD]-Morpholide; lactam N-11)
NRAS/KRAS (ratio of KD value with respect to GDP-bound NRAS wild-type protein to KD value with respect to KRAS) ([1]; SPR): C (A compound having a KD ratio of 0.1 or more and less than 3 is denoted as C) | HRAS/KRAS (ratio of KD value with respect to GDP-bound HRAS wild-type protein to KD value with respect to KRAS) ([2]; SPR): B (a compound having 3 or more and less than 10 is denoted as B)

CCO[C@@H]1C[C@H]2C(=O)NC3(CC(C)(C)C3)C(=O)N(C)[C@@H](C3CCCC3)C(=O)N(C)[C@H](C(=O)N(C)C)CC(=O)N(CC)[C@@H](CC(C)C)C(=O)N[C@@H]([C@@H](C)CC)C(=O)NCC(=O)N(C)[C@H]3C/C=C\CCN(C3=O)[C@@H](Cc3ccc(C(F)(F)F)cc3)C(=O)N(C)CC(=O)N[C@@H](CCc3cc(F)c(C(F)(F)F)c(F)c3)C(=O)N2C1 [PP1772]
NRAS/KRAS (ratio of KD value for NRAS to KD value for KRAS) [1, 3]: B (a compound having 3 or more and less than 10 is denoted as B) | HRAS/KRAS (ratio of KD value for HRAS to KD value for KRAS) [2, 4]: B (a compound having 3 or more and less than 10 is denoted as B)

CCO[C@@H]1C[C@H]2C(=O)NC3(CC(C)(C)C3)C(=O)N(C)[C@@H](C3CCCC3)C(=O)N(C)[C@H](C(=O)N3CCCC3)CC(=O)N(C)[C@H]3CCCCCc4ccc(cc4)C[C@@H](C(=O)N(C)CC(=O)N[C@@H](CCc4ccc(C(F)(F)F)c(OC)c4)C(=O)N2C1)N1CC/C=C\C[C@@H](C1=O)N(C)C(=O)CN(C)C(=O)[C@H]([C@@H](C)CC)NC3=O [PP3037, (1S,7S,11R,13S,19S,22S,26S,29S,35S,37Z)-19-cyclopentyl-11-ethoxy-7-[2-[3-methoxy-4-(trifluoromethyl)phenyl]ethyl]-3,3′,3′,18,21,25,31,34-octamethyl-29-[(1S)-1-methylpropyl]-22-(pyrrolidine-1-carbonyl)spiro[3,6,9,15,18,21,25,28,31,34,41-undecazapentacyclo[24.15.10.2^43,46.1^35,41.0^9,13]tetrapentaconta-37,43(53),44,46(52)-tetraene-16,1′-cyclobutane]-2,5,8,14,17,20,24,27,30,33,54-undecone]
NRAS/KRAS (ratio of KD value with respect to GDP-bound NRAS wild-type protein to KD value with respect to KRAS) [1, 5]: A (a compound having 10 or more and less than 20 is denoted as A) | HRAS/KRAS (ratio of KD value with respect to GDP-bound HRAS wild-type protein to KD value with respect to KRAS) [2, 5]: B (a compound having 3 or more and less than 10 is denoted as B)

CC[C@H](C)[C@@H]1NC(=O)[C@H](COC)N(C)C(=O)C[C@@H](C(=O)N2CCOCC2)N(C)C(=O)[C@H](C2CCCC2)N(C)C(=O)C2(CCC2)NC(=O)[C@@H]2C[C@H](OC)CN2C(=O)[C@H](CCc2cc(F)c(C(F)(F)F)c(F)c2)NC(=O)CN(C)C(=O)[C@H](Cc2ccc(C(F)(F)F)cc2)N2CCCCC[C@@H](C2=O)N(C)C(=O)CN(C)C1=O [PP0836]
NRAS/KRAS (ratio of KD value with respect to NRAS to KD value with respect to KRAS) [1, 3]: B (a compound having 3 or more and less than 10 is denoted as B) | HRAS/KRAS (ratio of KD value with respect to HRAS to KD value with respect to KRAS) [2, 4]: B (a compound having 3 or more and less than 10 is denoted as B)

CCCN1C(=O)CN(C)C(=O)CN(C)C(=O)[C@H]([C@@H](C)CC)NC(=O)[C@H](CC(C)C)N(C)C(=O)C[C@@H](C(=O)N2CCOCC2)N(C)C(=O)[C@H](C2CCCC2)N(C)C(=O)C2(CCCC2)NC(=O)[C@@H]2CCCN2C(=O)[C@H](CCc2ccc(C(F)(F)F)c(Cl)c2)NC(=O)CN(C)C(=O)[C@@H]1Cc1ccc(OC)cc1 [PP0135] ([NMeL]I[Sar][Sar][X40][Sar][hPhe(3-Cl-4-CF3)]P[Ac5c][NMeGly(cPent)][NMeD]-Morpholide; lactam N-11)
NRAS/KRAS (ratio of KD for GDP-bound NRAS wild-type to KD for KRAS) ([1]; SPR): B (a compound having 3 or more and less than 10 is denoted as B) | HRAS/KRAS (ratio of KD for GDP-bound HRAS wild-type to KD for KRAS) ([2]; SPR): C (A compound having a KD ratio of 0.1 or more and less than 3 is denoted as C)

C=CCN1CC(=O)N(C)[C@H]2C/C=C\CCN(C2=O)[C@@H](Cc2ccc(C)cc2)C(=O)N(C)CC(=O)N[C@@H](CCc2cc(F)c(C(F)(F)F)c(F)c2)C(=O)N2C[C@H](OCC)C[C@H]2C(=O)NC2(CC(C)(C)C2)C(=O)N(C)[C@@H](C2CCCC2)C(=O)N(C)[C@H](C(=O)N(C)C)CC(=O)N(C)[C@@H](CCC)C(=O)N[C@@H]([C@@H](C)CC)C1=O [PP2094]
NRAS/KRAS (ratio of KD value with respect to NRAS to KD value with respect to KRAS) [1, 6]: A (a compound having 10 or more and less than 20 is denoted as A) | HRAS/KRAS (ratio of KD value with respect to HRAS to KD value with respect to KRAS) [2, 7]: A (a compound having 10 or more and less than 20 is denoted as A)

CCO[C@@H]1C[C@H]2C(=O)NC3(CCC3)C(=O)N(C)[C@@H](C3CCCC3)C(=O)N(C)[C@H](C(=O)N(C)C)CC(=O)N(C)[C@@H](CC)C(=O)N[C@@H]([C@@H](C)CC)C(=O)NCC(=O)N(C)[C@H]3C/C=C\CCN(C3=O)[C@@H](Cc3ccc(C(F)(F)F)cc3)C(=O)N(C)CC(=O)N[C@@H](CCc3cc(F)c(C(F)(F)F)c(F)c3)C(=O)N2C1 [PP0983]
NRAS/KRAS (ratio of KD value with respect to NRAS to KD value with respect to KRAS) [1, 3]: A (a compound having 10 or more and less than 20 is denoted as A) | HRAS/KRAS (ratio of KD value with respect to HRAS to KD value with respect to KRAS) [2, 4]: A (a compound having 10 or more and less than 20 is denoted as A)

CCCN1C(=O)CN(C)C(=O)CN(C)C(=O)[C@H]([C@@H](C)CC)NC(=O)[C@H](CC(C)C)N(C)C(=O)C[C@@H](C(=O)N2CCOCC2)NC(=O)[C@H](C2CCCC2)N(C)C(=O)C2(CCC2)NC(=O)[C@@H]2C[C@@H](OCC)CN2C(=O)[C@H](CCc2ccc(C(F)(F)F)c(Cl)c2)NC(=O)CN(C)C(=O)[C@@H]1Cc1ccc(C(F)(F)F)cc1 [PP0324] ([NMeL]I[Sar][Sar][NPrPhe(4-CF3)][Sar][hPhe(3-Cl-4-CF3)][Hyp](Et)[Ac4c][NMeGly(cPent)]D-Morpholide; lactam N-11)
NRAS/KRAS (ratio of KD for GDP-bound NRAS wild-type to KD for KRAS) ([1]; SPR): B (a compound having 3 or more and less than 10 is denoted as B) | HRAS/KRAS (ratio of KD for GDP-bound HRAS wild-type to KD for KRAS) ([2]; SPR): B (a compound having 3 or more and less than 10 is denoted as B)

CCC[C@H]1C(=O)N[C@@H]([C@@H](C)CC)C(=O)N(C2CC2)CC(=O)N(C)[C@H]2C/C=C\CCN(C2=O)[C@@H](Cc2ccc(C)cc2)C(=O)N(C)CC(=O)N[C@@H](CCc2cc(F)c(C(F)(F)F)c(F)c2)C(=O)N2C[C@H](OCC)C[C@H]2C(=O)NC2(CC(C)(C)C2)C(=O)N(C)[C@@H](C2CCCC2)C(=O)N(C)[C@H](C(=O)N(C)C)CC(=O)N1C [PP2093, (2S,8S,12R,14S,20S,23S,27S,30S,36S,38Z)-20-cyclopentyl-32-cyclopropyl-8-[2-[3,5-difluoro-4-(trifluoromethyl)phenyl]ethyl]-12-ethoxy-N,N,3′,3′,4,19,22,26,35-nonamethyl-30-[(1S)-1-methylpropyl]-3,6,9,15,18,21,25,28,31,34,42-undecaoxo-27-propyl-2-(p-tolylmethyl)spiro[1,4,7,10,16,19,22,26,29,32,35-undecazatricyclo[34.5.1.0^10,14]dotetracont-38-ene-17,1′-cyclobutane]-23-carboxamide]
NRAS/KRAS (ratio of KD value with respect to NRAS to KD value with respect to KRAS) [1, 6]: A (a compound having 10 or more and less than 20 is denoted as A) | HRAS/KRAS (ratio of KD value with respect to HRAS to KD value with respect to KRAS) [2, 7]: A (a compound having 10 or more and less than 20 is denoted as A)

CCCN1C(=O)CN(C)C(=O)CN(C)C(=O)[C@H]([C@@H](C)CC)NC(=O)[C@H](CC(C)C)N(C)C(=O)C[C@@H](C(=O)N2CCOCC2)N(C)C(=O)[C@H](C2CCCC2)N(C)C(=O)C2(CCCC2)NC(=O)[C@@H]2COCCN2C(=O)[C@H](CCc2ccc(C(F)(F)F)c(Cl)c2)NC(=O)CN(C)C(=O)[C@@H]1Cc1ccc(C(F)(F)F)cc1 [PP0265] ([NMeL]I[Sar][Sar][NPrPhe(4-CF3)][Sar][hPhe(3-Cl-4-CF3)][Morpholine(3S-CO)][Ac5c][NMeGly(cPent)][NMeD]-Morpholide; lactam N-11)
NRAS/KRAS (ratio of KD for GDP-bound NRAS wild-type to KD for KRAS) ([1]; SPR): B (a compound having 3 or more and less than 10 is denoted as B) | HRAS/KRAS (ratio of KD for GDP-bound HRAS wild-type to KD for KRAS) ([2]; SPR): C (A compound having a KD ratio of 0.1 or more and less than 3 is denoted as C)

CC[C@H](C)[C@@H]1NC(=O)[C@H](CC(C)C)N(C)C(=O)C[C@@H](C(=O)N2CCOCC2)N(C)C(=O)[C@H](C2CCCC2)N(C)C(=O)C2(CCCC2)NC(=O)[C@@H]2C[C@H](O)CN2C(=O)[C@H](CCc2cc(F)c(C(F)(F)F)c(F)c2)NC(=O)CN(C)C(=O)[C@H](Cc2ccc(C(F)(F)F)cc2)N2CCCC[C@@H](C2=O)N(C)C(=O)CN(C)C1=O [PP0556]
NRAS/KRAS (ratio of KD value with respect to GDP-bound NRAS wild-type protein to KD value with respect to KRAS) ([1]; SPR): C (A compound having a KD ratio of 0.1 or more and less than 3 is denoted as C) | HRAS/KRAS (ratio of KD value with respect to GDP-bound HRAS wild-type protein to KD value with respect to KRAS) ([2]; SPR): B (a compound having 3 or more and less than 10 is denoted as B)

CCC[C@H]1C(=O)N[C@@H]([C@@H](C)CC)C(=O)N(C)CC(=O)N(C)[C@H]2C/C=C\CCN(C2=O)[C@@H](Cc2ccc(C)cc2)C(=O)N(C)CC(=O)N[C@@H](CCc2cc(Cl)c3c(ccn3C)c2)C(=O)N2C[C@H](OCC)C[C@H]2C(=O)NC2(CC(C)(C)C2)C(=O)N(C)[C@@H](C2CCCC2)C(=O)N(C)[C@H](C(=O)N(C)C)CC(=O)N1C [PP2951]
NRAS/KRAS (ratio of KD value with respect to GDP-bound NRAS wild-type protein to KD value with respect to KRAS) ([1]; class symbols): A (a compound having 10 or more and less than 20 is denoted as A) | HRAS/KRAS (ratio of KD value with respect to GDP-bound HRAS wild-type protein to KD value with respect to KRAS) ([2]; class symbols): A (a compound having 10 or more and less than 20 is denoted as A)
